In patent publication US20020137929A1, “1 - (3-heterocyclylphenyl) isothiourea, -isourea, -guanidine and -amidine herbicidal agents” (Intellectual Property Department, BASF Aktiengesellschaft, priority 1998, published 2002):

Columns and labels:
[1] = test system: IPOHE (Morningglory, Ivyleaf); test: Postemergence herbicidal evaluation; assay type: in vivo, Ipomoea hederacea; conditions: postemergence
Procedure, shortened: (§1)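 Each compound, dispersed in an acetone/water mix (50/50) carrying 0.5% TWEEN 20, is nozzle-sprayed at 40 psi on approximately two-week-old seedlings at about 0.0156–0.500 kg/ha. Plants are assessed 4–5 weeks afterward on a 0–9 scale relative to control; duplicate tests are averaged.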

[2] = test system: GLXMAW (Soybean, Williams); test: Preemergence herbicidal evaluation; assay type: in vivo, Glycine max, (L.) Merr. cv Williams; conditions: rated 4-5 weeks after treatment, rating scale 0-9
Procedure, shortened: (§2)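 Scores use a 0–9 visual scale covering stand, vigor, malformation, size and chlorosis relative to controls, rated four to five weeks after treatment. Before emergence, soil-planted seeds were sprayed with compound in aqueous acetone at roughly 0.0156–0.500 kg/ha and held in the greenhouse.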

CASOB (Sicklepod) [3] = test: Postemergence herbicidal evaluation; assay type: in vivo, Cassia obtusifolia; conditions: postemergence
Procedure, shortened: as §1

CASOB (Sicklepod) [4] = test: Preemergence herbicidal evaluation; assay type: in vivo, Cassia obtusifolia; conditions: rated 4-5 weeks after treatment, rating scale 0-9
Procedure, shortened: as §2

[5] = test system: IPOHE (Morningglory, Ivyleaf); test: Preemergence herbicidal evaluation; assay type: in vivo, Ipomoea hederacea; conditions: rated 4-5 weeks after treatment, rating scale 0-9
Procedure, shortened: as §2

[6] = test system: CHEAL (Lambsquarters, Common); test: Postemergence herbicidal evaluation; assay type: in vivo, Chenopodium album; conditions: postemergence
Procedure, shortened: as §1

[7] = test system: SAGPY (Arrowhead (Pygmaea)); test: Preemergence weed control under flooded paddy conditions; assay type: in vivo, Sagittaria pygmaea; conditions: rated 3-4 weeks after treatment
Procedure, shortened: (§3)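 Ratings on a 0-9 visual scale cover stand, vigor, malformation, size, chlorosis and overall appearance relative to a control, taken three to four weeks post-treatment. Application was into flood water over freshly sown silt loam at roughly 0.0313 to 0.500 kg/ha.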

[8] = test system: CHEAL (Lambsquarters, Common); test: Preemergence herbicidal evaluation; assay type: in vivo, Chenopodium album; conditions: rated 4-5 weeks after treatment, rating scale 0-9
Procedure, shortened: as §2

ABUTH (Velvetleaf) = test: Preemergence herbicidal evaluation; assay type: in vivo, Abutilon theophrasti; conditions: rated 4-5 weeks after treatment, rating scale 0-9
Procedure, shortened: as §2

[9] = test system: GLXMAW (Soybean, Williams); test: Postemergence herbicidal evaluation; assay type: in vivo, Glycine max, (L.) Merr. cv Williams; conditions: postemergence
Procedure, shortened: as §1

ORYSAT (Rice, Tebonnet) = test: Preemergence herbicidal evaluation; assay type: in vivo, Oryza sativa, (L.) Tebonnet; conditions: rated 4-5 weeks after treatment, rating scale 0-9
Procedure, shortened: as §2

AMBEL (Ragweed, Common) [10] = test: Preemergence herbicidal evaluation; assay type: in vivo, Ambrosia artemisifolia; conditions: rated 4-5 weeks after treatment, rating scale 0-9
Procedure, shortened: as §2

AMBEL (Ragweed, Common) [11] = test: Postemergence herbicidal evaluation; assay type: in vivo, Ambrosia artemisifolia; conditions: postemergence
Procedure, shortened: as §1

ECHCG (Barnyardgrass) = test: Postemergence herbicidal evaluation; assay type: in vivo, Echinochloa crus-galli; conditions: postemergence
Procedure, shortened: as §1

MOOVA (Monochoria) = test: Preemergence weed control under flooded paddy conditions; assay type: in vivo, Monochoria vaginalis; conditions: rated 3-4 weeks after treatment
Procedure, shortened: as §3

[12] = test system: TRZAWR (Wheat, Winter, cv Riband); test: Postemergence herbicidal evaluation; assay type: in vivo, Triticum aestivum; conditions: postemergence
Procedure, shortened: as §1

`Cc1cc(C)cc(CN2C(=O)CSC2=Nc2cc(-n3c(=O)cc(C(F)(F)F)n(C)c3=O)c(F)cc2Cl)c1` [Compound 146, 3-{4-Chloro-5-{[3-(3,5-dimethylbenzyl)-4-oxo-2-thiazolidinylidene]amino}-2-fluorophenyl}-1-methyl-6-(trifluoromethyl)-2,4(1H,3H)-pyrimidinedione] was tested, and the “Herbicidal rating IPOHE” value ([1]; rate 0.0156 kg/ha) was 9.0, the “Herbicidal rating IPOHE” value ([1]; rate 0.0313 kg/ha) was 9.0 and the “Herbicidal rating IPOHE” value ([1]; rate 0.0625 kg/ha) was 9.0. The “Preemergence herbicidal rating GLXMAW” value ([2]; rate 0.0156 kg/ha) was 0.0, the “Preemergence herbicidal rating GLXMAW” value ([2]; rate 0.0313 kg/ha) was 0.0 and the “Preemergence herbicidal rating GLXMAW” value ([2]; rate 0.0625 kg/ha) was 0.0. For the same compound, the “Preemergence herbicidal rating GLXMAW” value ([2]; rate 0.1250 kg/ha) was 0.0, the “Preemergence herbicidal rating GLXMAW” value ([2]; rate 0.2500 kg/ha) was 1.0 and the “Herbicidal rating CASOB” value (CASOB (Sicklepod) [3]; rate 0.0156 kg/ha) was 1.0. For the same compound, the “Herbicidal rating CASOB” value (CASOB (Sicklepod) [3]; rate 0.0313 kg/ha) was 2.0, the “Herbicidal rating CASOB” value (CASOB (Sicklepod) [3]; rate 0.0625 kg/ha) was 4.0 and the “Preemergence herbicidal rating CASOB” value (CASOB (Sicklepod) [4]; rate 0.0156 kg/ha) was 0.0. For the same compound, the “Preemergence herbicidal rating CASOB” value (CASOB (Sicklepod) [4]; rate 0.0313 kg/ha) was 0.0, the “Preemergence herbicidal rating CASOB” value (CASOB (Sicklepod) [4]; rate 0.0625 kg/ha) was 0.0 and the “Preemergence herbicidal rating CASOB” value (CASOB (Sicklepod) [4]; rate 0.1250 kg/ha) was 1.0. The “Preemergence herbicidal rating CASOB” value (CASOB (Sicklepod) [4]; rate 0.2500 kg/ha) was 1.0, the “Preemergence herbicidal rating IPOHE” value ([5]; rate 0.0156 kg/ha) was 0.0 and the “Preemergence herbicidal rating IPOHE” value ([5]; rate 0.0313 kg/ha) was 0.0. For the same compound, the “Preemergence herbicidal rating IPOHE” value ([5]; rate 0.0625 kg/ha) was 0.0, the “Preemergence herbicidal rating IPOHE” value ([5]; rate 0.1250 kg/ha) was 0.0 and the “Preemergence herbicidal rating IPOHE” value ([5]; rate 0.2500 kg/ha) was 0.0. The “Herbicidal rating CHEAL” value ([6]; rate 0.0156 kg/ha) was 9.0, the “Herbicidal rating CHEAL” value ([6]; rate 0.0313 kg/ha) was 9.0 and the “Herbicidal rating CHEAL” value ([6]; rate 0.0625 kg/ha) was 9.0. For the same compound, the “herbicidal effect rating, SAGPY” value ([7]; 0.0313 kg/ha) was 0.0, the “herbicidal effect rating, SAGPY” value ([7]; 0.0625 kg/ha) was 0.0 and the “herbicidal effect rating, SAGPY” value ([7]; 0.1250 kg/ha) was 3.0. The “herbicidal effect rating, SAGPY” value ([7]; 0.2500 kg/ha) was 4.0, the “Preemergence herbicidal rating CHEAL” value ([8]; rate 0.0156 kg/ha) was 0.0 and the “Preemergence herbicidal rating CHEAL” value ([8]; rate 0.0313 kg/ha) was 9.0. The “Preemergence herbicidal rating CHEAL” value ([8]; rate 0.0625 kg/ha) was 9.0, the “Preemergence herbicidal rating CHEAL” value ([8]; rate 0.1250 kg/ha) was 9.0 and the “Preemergence herbicidal rating CHEAL” value ([8]; rate 0.2500 kg/ha) was 9.0. For the same compound, the “Preemergence herbicidal rating ABUTH” value (ABUTH (Velvetleaf); rate 0.0156 kg/ha) was 0.0, the “Preemergence herbicidal rating ABUTH” value (ABUTH (Velvetleaf); rate 0.0625 kg/ha) was 1.0 and the “Preemergence herbicidal rating ABUTH” value (ABUTH (Velvetleaf); rate 0.1250 kg/ha) was 9.0. The “Preemergence herbicidal rating ABUTH” value (ABUTH (Velvetleaf); rate 0.2500 kg/ha) was 9.0, the “Herbicidal rating GLXMAW” value ([9]; rate 0.0156 kg/ha) was 5.0 and the “Herbicidal rating GLXMAW” value ([9]; rate 0.0313 kg/ha) was 6.0. For the same compound, the “Herbicidal rating GLXMAW” value ([9]; rate 0.0625 kg/ha) was 6.0, the “Preemergence herbicidal rating ORYSAT” value (ORYSAT (Rice, Tebonnet); rate 0.0156 kg/ha) was 0.0 and the “Preemergence herbicidal rating ORYSAT” value (ORYSAT (Rice, Tebonnet); rate 0.0313 kg/ha) was 0.0. The “Preemergence herbicidal rating ORYSAT” value (ORYSAT (Rice, Tebonnet); rate 0.0625 kg/ha) was 0.0, the “Preemergence herbicidal rating ORYSAT” value (ORYSAT (Rice, Tebonnet); rate 0.1250 kg/ha) was 0.0 and the “Preemergence herbicidal rating ORYSAT” value (ORYSAT (Rice, Tebonnet); rate 0.2500 kg/ha) was 1.0. The “Preemergence herbicidal rating AMBEL” value (AMBEL (Ragweed, Common) [10]; rate 0.0156 kg/ha) was 0.0, the “Preemergence herbicidal rating AMBEL” value (AMBEL (Ragweed, Common) [10]; rate 0.0313 kg/ha) was 0.0 and the “Preemergence herbicidal rating AMBEL” value (AMBEL (Ragweed, Common) [10]; rate 0.0625 kg/ha) was 0.0. For the same compound, the “Preemergence herbicidal rating AMBEL” value (AMBEL (Ragweed, Common) [10]; rate 0.1250 kg/ha) was 0.0, the “Preemergence herbicidal rating AMBEL” value (AMBEL (Ragweed, Common) [10]; rate 0.2500 kg/ha) was 3.0 and the “Herbicidal rating AMBEL” value (AMBEL (Ragweed, Common) [11]; rate 0.0156 kg/ha) was 9.0. For the same compound, the “Herbicidal rating AMBEL” value (AMBEL (Ragweed, Common) [11]; rate 0.0313 kg/ha) was 9.0, the “Herbicidal rating AMBEL” value (AMBEL (Ragweed, Common) [11]; rate 0.0625 kg/ha) was 9.0 and the “Herbicidal rating ECHCG” value (ECHCG (Barnyardgrass); rate 0.0156 kg/ha) was 1.0. The “Herbicidal rating ECHCG” value (ECHCG (Barnyardgrass); rate 0.0313 kg/ha) was 1.0, the “Herbicidal rating ECHCG” value (ECHCG (Barnyardgrass); rate 0.0625 kg/ha) was 2.0 and the “herbicidal effect rating, MOOVA” value (MOOVA (Monochoria); 0.0313 kg/ha) was 4.0. For the same compound, the “herbicidal effect rating, MOOVA” value (MOOVA (Monochoria); 0.0625 kg/ha) was 6.0, the “herbicidal effect rating, MOOVA” value (MOOVA (Monochoria); 0.1250 kg/ha) was 6.0 and the “herbicidal effect rating, MOOVA” value (MOOVA (Monochoria); 0.2500 kg/ha) was 9.0. For the same compound, the “Herbicidal rating TRZAWR” value ([12]; rate 0.0156 kg/ha) was 2.0, the “Herbicidal rating TRZAWR” value ([12]; rate 0.0313 kg/ha) was 3.5 and the “Herbicidal rating TRZAWR” value ([12]; rate 0.0625 kg/ha) was 4.5.
